From ChEMBL document CHEMBL1921678, “The discovery of novel cyclohexylamide CCR2 antagonists” (Bioorg Med Chem Lett, 2011)
The source made the active and inactive calls. The calls are words filed in the database; no cut-off is given here.

Experiments:
[1] = biological target: C-C chemokine receptor type 2 (Homo sapiens, UniProt P41597); test: Antagonist activity at human CCR2; type: functional
[2] = biological target: T1, Voltage-gated inwardly rectifying potassium channel KCNH2 (Homo sapiens, UniProt Q12809); test: Inhibition of human ERG
[3] = system: Mus musculus; test: Antiinflammatory activity in human CCR2 transgenic C57BL/6 mouse assessed as reduction of thioglycollate-induced peritonitis at 30 mg/kg, po; type: functional, organism-based; design: dose 30 mg/kg
[4] = biological target: C-C chemokine receptor type 2 (Mus musculus) (UniProt P51683); test: Antagonist activity at mouse CCR2; type: functional
[5] = biological target: T1, Voltage-gated inwardly rectifying potassium channel KCNH2; test: Inhibition of human ERG by patch clamp assay
[6] = biological target: T1, Voltage-gated inwardly rectifying potassium channel KCNH2; test: Binding affinity to human ERG
[7] = system: Cavia porcellus; test: Cardiotoxicity in guinea pig hemodynamic model assessed as PR interval at 10 mg/kg, iv; type: toxicity, organism-based; design: dose 10 mg/kg, route intravenous; conditions: in vivo
[8] = Volume of distribution at steady state in mouse at 2 mg/kg, iv; type: ADME, organism-based; design: dose 2 mg/kg, route intravenous; conditions: in vivo, read-out: Vdss
[9] = system: Cavia porcellus; test: Cardiotoxicity in guinea pig hemodynamic model assessed as QTc at 10 mg/kg, iv; type: toxicity, organism-based; design: dose 10 mg/kg, route intravenous; conditions: in vivo
[10] = Half life in mouse at 10 mg/kg, po; type: ADME, organism-based; design: dose 10 mg/kg, route oral; conditions: in vivo
[11] = AUC in mouse at 10 mg/kg, po; type: ADME, organism-based; design: dose 10 mg/kg, route oral; conditions: plasma
[12] = Half life in mouse at 2 mg/kg, iv; type: ADME, organism-based; design: dose 2 mg/kg, route intravenous; conditions: in vivo
[13] = system: Cavia porcellus; test: Cardiotoxicity in guinea pig hemodynamic model assessed as QRS duration at 10 mg/kg, iv; type: toxicity, organism-based; design: dose 10 mg/kg, route intravenous; conditions: in vivo
[14] = Cmax in mouse at 10 mg/kg, po; type: ADME, organism-based; design: dose 10 mg/kg, route oral; conditions: in vivo
[15] = system: Cavia porcellus; test: Cardiotoxicity in guinea pig hemodynamic model assessed as heart rate at 10 mg/kg, iv; type: toxicity, organism-based; design: dose 10 mg/kg, route intravenous; conditions: in vivo
[16] = Clearance in mouse at 2 mg/kg, iv; type: ADME, organism-based; design: dose 2 mg/kg, route intravenous; conditions: in vivo
[17] = system: Cavia porcellus; test: Cardiotoxicity in guinea pig hemodynamic model assessed as QT interval at 10 mg/kg, iv; type: toxicity, organism-based; design: dose 10 mg/kg, route intravenous; conditions: in vivo
[18] = Oral bioavailability in mouse at 10 mg/kg; type: ADME, organism-based; conditions: in vivo
[19] = system: Cavia porcellus; test: Cardiotoxicity in guinea pig hemodynamic model assessed as mean arterial pressure at 10 mg/kg, iv; type: toxicity, organism-based, Artery; design: dose 10 mg/kg, route intravenous; conditions: in vivo
[20] = Initial plasma concentration in mouse at 2 mg/kg, iv; type: ADME, organism-based; design: dose 2 mg/kg, route intravenous

T1 sequence (Q12809 whole entry): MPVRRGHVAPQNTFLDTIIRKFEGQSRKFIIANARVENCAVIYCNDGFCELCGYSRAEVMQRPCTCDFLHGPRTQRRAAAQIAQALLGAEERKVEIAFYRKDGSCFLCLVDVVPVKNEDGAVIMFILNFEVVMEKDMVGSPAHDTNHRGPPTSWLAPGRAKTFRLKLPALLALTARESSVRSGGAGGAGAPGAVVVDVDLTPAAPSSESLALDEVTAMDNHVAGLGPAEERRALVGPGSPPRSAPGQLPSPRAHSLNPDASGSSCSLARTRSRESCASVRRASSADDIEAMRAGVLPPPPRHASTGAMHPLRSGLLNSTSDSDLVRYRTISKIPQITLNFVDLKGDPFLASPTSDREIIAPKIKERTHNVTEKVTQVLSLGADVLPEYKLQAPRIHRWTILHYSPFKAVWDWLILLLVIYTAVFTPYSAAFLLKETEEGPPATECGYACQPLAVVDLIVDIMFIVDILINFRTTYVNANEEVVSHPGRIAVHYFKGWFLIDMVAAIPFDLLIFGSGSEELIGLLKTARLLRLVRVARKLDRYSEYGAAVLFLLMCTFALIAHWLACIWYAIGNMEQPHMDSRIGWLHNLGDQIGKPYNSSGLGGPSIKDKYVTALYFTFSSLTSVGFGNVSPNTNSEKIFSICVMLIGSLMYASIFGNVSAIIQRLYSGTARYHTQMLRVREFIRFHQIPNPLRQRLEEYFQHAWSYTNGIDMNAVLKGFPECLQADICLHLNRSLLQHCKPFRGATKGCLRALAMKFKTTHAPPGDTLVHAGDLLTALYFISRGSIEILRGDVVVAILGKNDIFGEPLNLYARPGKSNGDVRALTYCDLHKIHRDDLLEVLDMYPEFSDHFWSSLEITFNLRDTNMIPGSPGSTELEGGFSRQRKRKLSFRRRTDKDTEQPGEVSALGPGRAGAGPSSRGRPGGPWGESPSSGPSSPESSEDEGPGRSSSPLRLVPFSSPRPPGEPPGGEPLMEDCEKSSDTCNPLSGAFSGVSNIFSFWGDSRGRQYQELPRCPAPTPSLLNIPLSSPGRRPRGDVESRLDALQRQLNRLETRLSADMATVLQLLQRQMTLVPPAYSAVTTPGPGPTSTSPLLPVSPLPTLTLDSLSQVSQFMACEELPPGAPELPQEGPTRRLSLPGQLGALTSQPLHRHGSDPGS
C-C chemokine receptor type 2, sequence (P41597 whole entry): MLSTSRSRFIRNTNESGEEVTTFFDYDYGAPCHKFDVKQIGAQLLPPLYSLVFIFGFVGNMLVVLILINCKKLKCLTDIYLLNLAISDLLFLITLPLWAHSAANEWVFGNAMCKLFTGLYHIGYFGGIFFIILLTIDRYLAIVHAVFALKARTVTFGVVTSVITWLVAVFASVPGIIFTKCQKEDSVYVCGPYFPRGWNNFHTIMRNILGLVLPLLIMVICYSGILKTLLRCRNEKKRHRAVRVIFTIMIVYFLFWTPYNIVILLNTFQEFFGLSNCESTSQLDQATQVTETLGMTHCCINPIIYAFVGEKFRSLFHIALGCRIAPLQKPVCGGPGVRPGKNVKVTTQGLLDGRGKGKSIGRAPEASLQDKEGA
C-C chemokine receptor type 2 (Mus musculus), sequence (P51683 whole entry, looked up): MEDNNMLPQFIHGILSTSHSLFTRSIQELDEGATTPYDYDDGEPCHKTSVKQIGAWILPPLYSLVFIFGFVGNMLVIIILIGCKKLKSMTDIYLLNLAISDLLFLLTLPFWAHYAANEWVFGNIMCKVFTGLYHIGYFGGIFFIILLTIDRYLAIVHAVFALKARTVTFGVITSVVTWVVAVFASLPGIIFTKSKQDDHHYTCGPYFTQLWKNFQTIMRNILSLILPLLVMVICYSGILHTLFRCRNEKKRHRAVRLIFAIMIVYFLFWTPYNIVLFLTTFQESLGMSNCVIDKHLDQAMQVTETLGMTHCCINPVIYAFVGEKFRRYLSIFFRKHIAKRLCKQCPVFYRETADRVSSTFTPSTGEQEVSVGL

Compound	IC50 [1] [nM]	INH [2] [µM]	also measured
NC(=O)C(NC1CCC(c2c[nH]c3ccccc23)CC1)C1CN(C(=O)/C=C/c2cc(F)c(F)c(F)c2)C1 (centres undefined)	> 25000	–	–
NC(=O)C(NC1CCC(C2CNc3ccccc32)CC1)C1CCN(C(=O)/C=C/c2cc(F)c(F)c(F)c2)CC1 (centres undefined)	950	4.2	–
CN(C)c1ccc(/C=C/C(=O)N2CCC(C(NC3CCC(c4c[nH]c5ccccc45)CC3)C(N)=O)CC2)cc1 (centres undefined)	1890	> 50	–
NC(=O)C(NC1CCC(c2c[nH]c3ccccc23)CC1)C1CCN(C(=O)/C=C/c2cc(F)cc(F)c2)CC1 (single isomer, unassigned; (-))	–	20.375	–
NC(=O)C(NC1CCC(c2c[nH]c3ccccc23)CC1)C1CCN(C(=O)/C=C/c2ccc(F)cc2)CC1 (centres undefined)	36	2.02	–
NC(=O)C(NC1CCC(c2c[nH]c3ccccc23)CC1)C1CCN(C(=O)/C=C/c2ccc(F)c(F)c2)CC1 (centres undefined)	38	1.714	–
CN(C)C(=O)C(NC1CCC(c2c[nH]c3ccccc23)CC1)C1CCN(C(=O)/C=C/c2cc(F)c(F)c(F)c2)CC1 (centres undefined)	–	4.4	–
NC(=O)C(NC1CCc2ccccc21)C1CCN(C(=O)/C=C/c2cc(F)c(F)c(F)c2)CC1 (centres undefined)	2300	–	–
COc1ccc(C2CCC(NC(C(N)=O)C3CCN(C(=O)/C=C/c4cc(F)c(F)c(F)c4)CC3)CC2)cn1 (centres undefined)	–	11.7	–
NC(=O)C(NC1CCC(c2c[nH]c3ccccc23)CC1)C1CCN(C(=O)/C=C/c2ccc(Cl)cc2)CC1 (centres undefined)	–	0.87	–
NC(=O)C(NC1CCC(c2c[nH]c3ccccc23)CC1)C1CCN(C(=O)/C=C/c2cc(F)c(F)c(F)c2)CC1 (centres undefined)	–	3.3	–
NC(=O)C(NC1Cc2ccccc2C1)C1CCN(C(=O)/C=C/c2cc(F)c(F)c(F)c2)CC1 (centres undefined)	1400	–	–
NC(=O)C(NC1CCC(c2c[nH]c3ccccc23)CC1)C1CCN(C(=O)/C=C/c2c(F)cccc2F)CC1 (centres undefined)	> 25000	3.734	–
NC(=O)C(NC1CCC(c2c[nH]c3ccccc23)CC1)C1CCN(C(=O)/C=C/c2cc(F)cc(F)c2)CC1 (racemic) [listing 1 of 2 here]	–	–	Activity [3]: Active; inhibition [4]: inactive
NC(=O)C(NC1CCC(c2c[nH]c3cnccc23)CC1)C1CCN(C(=O)/C=C/c2cc(F)c(F)c(F)c2)CC1 (centres undefined)	2200	< 0.2	–
NC(=O)C(NC1CCC(c2ccccc2)C1)C1CCN(C(=O)/C=C/c2cc(F)c(F)c(F)c2)CC1 (centres undefined)	1300	–	–
CNC(=O)C(NC1CCC(c2c[nH]c3ccccc23)CC1)C1CCN(C(=O)/C=C/c2cc(F)c(F)c(F)c2)CC1 (centres undefined)	–	5.4	–
NC(=O)C(NC1CCC(c2c[nH]c3ccccc23)CC1)C1CCN(C(=O)/C=C/c2ccc(OC(F)(F)F)cc2)CC1 (centres undefined)	–	1.39	–
CC(NC1CCC(c2c[nH]c3ccccc23)CC1)C1CCN(C(=O)/C=C/c2cc(F)c(F)c(F)c2)CC1 (centres undefined)	8600	0.29	–
NC(=O)C(NC1CCC(c2c[nH]c3ccccc23)CC1)C1CCN(C(=O)/C=C/c2cc(F)cc(F)c2)CC1 (racemic) [listing 2 of 2 here]	–	4.906	INH [5]: 600 nM; INH [6]: 8 µM; Activity [7]: Non-toxic; Vd [8]: 3.71 L/kg; Activity [9]: Non-toxic; half-life [10]: 2.4 h; AUC [11]: 2420 ng·h/mL; half-life [12]: 1.9 h; Activity [13]: Non-toxic; Cmax [14]: 531 ng/mL; Activity [15]: Non-toxic; clearance [16]: 31 mL/min/kg; Activity [17]: Non-toxic; bioavailability [18]: 50%; Activity [19]: Non-toxic; C0 [20]: 1020 ng/mL
O=C(O)C(NC1CCC(c2c[nH]c3ccccc23)CC1)C1CCN(C(=O)/C=C/c2cc(F)c(F)c(F)c2)CC1 (centres undefined)	50	31	–
O=C(/C=C/c1cc(F)c(F)c(F)c1)N1CCC(C(CO)NC2CCC(c3c[nH]c4ccccc34)CC2)CC1 (centres undefined)	9200	0.52	–
NC(=O)C(NC1CCC(c2c[nH]c3ccccc23)CC1)C1CCN(C(=O)Cc2ccccc2)CC1 (centres undefined)	> 25000	17.636	–
NC(=O)C(NC1CCC(c2c[nH]c3ccccc23)CC1)C1CCN(C(=O)/C=C\c2cc(F)cc(F)c2)CC1 (cis isomer)	–	2.2	–

Compound	IC50 [1] [nM]	INH [2] [µM]	also measured
NC(=O)C(NC1CCC(c2ccccc2)CC1)C1CCN(C(=O)/C=C/c2cc(F)c(F)c(F)c2)CC1 (centres undefined)	6000	3.4	–
O=C1NC2(CCC(c3c[nH]c4ccccc34)CC2)NC1C1CCN(C(=O)/C=C/c2cc(F)c(F)c(F)c2)CC1 (centres undefined)	5200	–	–
NC(=O)C(NC1CCC(c2c[nH]c3cccnc23)CC1)C1CCN(C(=O)/C=C/c2cc(F)c(F)c(F)c2)CC1 (centres undefined)	35	6.3	–
CC(C)C1CCC(NC(C(N)=O)C2CCN(C(=O)/C=C/c3cc(F)c(F)c(F)c3)CC2)CC1 (centres undefined)	15800	6.2	–
NC(=O)C(NC1CCC(c2c[nH]c3ncccc23)CC1)C1CCN(C(=O)/C=C/c2cc(F)c(F)c(F)c2)CC1 (centres undefined)	–	8.3	–
NC(=O)C(NC1CCC(c2c[nH]c3ccccc23)CC1)C1CCN(C(=O)/C=C/c2ccc(C(F)(F)F)cc2)CC1 (centres undefined)	–	1.08	–
NC(=O)C(NC1CCC(c2c[nH]c3ccccc23)CC1)C1CCN(C(=O)/C=C/c2cc(F)cc(F)c2)CC1 (trans isomer)	–	6.6	–
CS(=O)(=O)c1ccc(/C=C/C(=O)N2CCC(C(NC3CCC(c4c[nH]c5ccccc45)CC3)C(N)=O)CC2)cc1 (centres undefined)	11600	> 50	–
NC(=O)C(NC1CCC(c2c[nH]c3ccccc23)CC1)C1CCN(C(=O)c2ccccc2)CC1 (centres undefined)	> 25000	5.471	–
NC(=O)C(NC1CCC(c2c[nH]c3ccccc23)CC1)C1CCN(C(=O)/C=C/c2ccccc2)CC1 (centres undefined)	–	7.35	–
NC(=O)C(NC1CCP(=O)(c2ccccc2)CC1)C1CCN(C(=O)/C=C/c2cc(F)c(F)c(F)c2)CC1 (centres undefined)	> 25000	–	–
COC(=O)C(NC1CCC(c2c[nH]c3ccccc23)CC1)C1CCN(C(=O)/C=C/c2cc(F)c(F)c(F)c2)CC1 (centres undefined)	900	2.2	–
NC(=O)C(NC1CCC(c2c[nH]c3ccccc23)CC1)C1CCN(C(=O)/C=C/c2cccc(F)c2)CC1 (centres undefined)	64	2.076	–
NC(=O)C(NC1CCC(c2c[nH]c3ccccc23)CC1)C1CCN(C(=O)CCc2ccccc2)CC1 (centres undefined)	> 25000	–	–
O=C(/C=C/c1cc(F)c(F)c(F)c1)N1CCC(CNC2CCC(c3c[nH]c4ccccc34)CC2)CC1 (centres undefined)	25000	–	–
NC(=O)C(NC1CCC(c2c[nH]c3ccccc23)CC1)C1CCN(C(=O)Nc2ccccc2)CC1 (centres undefined)	9570	14.784	–
CN(C1CCC(c2c[nH]c3ccccc23)CC1)C(C(=O)O)C1CCN(C(=O)/C=C/c2cc(F)c(F)c(F)c2)CC1 (centres undefined)	8100	–	–
NC(=O)C(NC1CCC(c2c[nH]c3ccccc23)CC1)C1CCN(Cc2ccccc2)CC1 (centres undefined)	> 25000	1.769	–
NC(=O)C(NC1CCC(c2c[nH]c3ccccc23)CC1)C1CCN(C(=O)/C=C/c2ccccc2F)CC1 (centres undefined)	–	4.128	–
O=C(O)C(C1CCN(C(=O)/C=C/c2cc(F)c(F)c(F)c2)CC1)N1CCC(c2c[nH]c3ccccc23)CC1 (centres undefined)	–	1.5	–
O=C(NO)C(NC1CCC(c2c[nH]c3ccccc23)CC1)C1CCN(C(=O)/C=C/c2cc(F)c(F)c(F)c2)CC1 (centres undefined)	–	41	–
NC(=O)C(NC1CCC(c2c[nH]c3ccccc23)CC1)C1CCN(C(=O)C2CC2c2ccccc2)CC1 (mixture of isomers)	1300	–	–
NC(=O)C(NC1CCC(c2c[nH]c3ccncc23)CC1)C1CCN(C(=O)/C=C/c2cc(F)c(F)c(F)c2)CC1 (centres undefined)	83	0.97	–
